We go through 19 compounds from patent publication US10647747B2, “Cyclosporin derivatives and uses thereof” (S&T Global Inc., priority 2010, dated 2020).

The EC50 is the concentration at which the effect is half-maximal.

One assay relates to HCV replicon in cell line ET (luc-ubi-neo/ET), Huh7 human hepatoma. Nature of the assay: HCV subgenomic replicon assay, luciferase end point. In kind it is cell-based. As to conditions: HCV subgenomic replicon, cell line ET (luc-ubi-neo/ET) Huh7, luciferase end point; read-out: Antiviral activity EC50.
Take `CC=CCC(C)C(O)C1C(=O)NC(CC)C(=O)N(C)C(CSCCN2CCOCC2)C(=O)N(C)C(CC(C)(C)OC)C(=O)NC(C(C)C)C(=O)N(C)C(CC(C)C)C(=O)NC(C)C(=O)NC(C)C(=O)N(C)C(CC(C)C)C(=O)N(C)C(CC(C)C)C(=O)N(C)C(C(C)C)C(=O)N1C` (centres unmarked): the EC50 was 110 nM.
Still for that read-out and setting: under `CC=CCC(C)C(O)C1C(=O)NC(CC)C(=O)N(C)C(CSCCN2CCCC2)C(=O)N(C)C(CC(C)(C)OC)C(=O)NC(C(C)C)C(=O)N(C)C(CC(C)C)C(=O)NC(C)C(=O)NC(C)C(=O)N(C)C(CC(C)C)C(=O)N(C)C(CC(C)C)C(=O)N(C)C(C(C)C)C(=O)N1C` (centres unmarked) stands 90 nM.
For `CC=CCC(C)C(O)C1C(=O)NC(CC)C(=O)N(C)C(CSCCN(CC)CC)C(=O)N(C)C(CC(C)(C)OC)C(=O)NC(C(C)C)C(=O)N(C)C(CC(C)C)C(=O)NC(C)C(=O)NC(C)C(=O)N(C)C(CC(C)C)C(=O)N(C)C(CC(C)C)C(=O)N(C)C(C(C)C)C(=O)N1C` (centres unmarked), the 50% effective concentration (EC50) came out at 90 nM.
On the same count and under the same terms, under `C/C=C/C[C@@H](C)[C@@H](O)[C@H]1C(=O)N[C@@H](CC)C(=O)N(C)[C@H](CSCCCN(CC)CC)C(=O)N(C)[C@@H](CC(C)(C)OC)C(=O)N[C@@H](C(C)C)C(=O)N(C)[C@@H](CC(C)C)C(=O)N[C@@H](C)C(=O)N[C@H](C)C(=O)N(C)[C@@H](CC(C)C)C(=O)N(C)[C@@H](CC(C)C)C(=O)N(C)[C@@H](C(C)C)C(=O)N1C` stands 70 nM.

The same assay, now with this note: Hepatitis C virus, Huh-7, HCV subgenomic replicon, cell line ET (luc-ubi-neo/ET) Huh7, luciferase end point; read-out: Antiviral activity EC50.
As to `C/C=C/C[C@@H](C)[C@@H](O)[C@H]1C(=O)N[C@@H](CC)C(=O)N(C)[C@H](CSCCNC(C)C)C(=O)N(C)[C@@H](CC(C)(C)O)C(=O)N[C@@H](C(C)C)C(=O)N(C)[C@@H](CC(C)C)C(=O)N[C@@H](C)C(=O)N[C@H](C)C(=O)N(C)[C@@H](CC(C)C)C(=O)N(C)[C@@H](CC(C)C)C(=O)N(C)[C@@H](C(C)C)C(=O)N1C`, the EC50 is 190 nM.
As for `C/C=C/C[C@@H](C)[C@@H](O)[C@H]1C(=O)N[C@@H](CC)C(=O)N(C)[C@H](CSCCNCC(C)(C)C)C(=O)N(C)[C@@H](CC(C)(C)O)C(=O)N[C@@H](C(C)C)C(=O)N(C)[C@@H](CC(C)C)C(=O)N[C@@H](C)C(=O)N[C@H](C)C(=O)N(C)[C@@H](CC(C)C)C(=O)N(C)[C@@H](CC(C)C)C(=O)N(C)[C@@H](C(C)C)C(=O)N1C`, the EC50 stood at 60 nM.

The same assay, now with this note: Hepatitis C virus, Huh-7, Table 14, HCV replicon luciferase; read-out: Antiviral activity EC50.
Regarding `C/C=C/C[C@@H](C)[C@@H](O)[C@H]1C(=O)N[C@@H](CC)C(=O)N(C)[C@H](COCCN(CC)CC)C(=O)N(C)[C@@H](CC(C)(C)OC)C(=O)N[C@@H](C(C)C)C(=O)N(C)[C@@H](CC(C)C)C(=O)N[C@@H](C)C(=O)N[C@H](C)C(=O)N(C)[C@@H](CC(C)C)C(=O)N(C)[C@@H](CC(C)C)C(=O)N(C)[C@@H](C(C)C)C(=O)N1C`, the EC50 was 20 nM.
Same read-out and setting: under `C/C=C/C[C@@H](C)[C@@H](O)[C@H]1C(=O)N[C@@H](CC)C(=O)N(C)[C@H](CSCCN2CCN(C)CC2)C(=O)N(C)[C@@H](CC(C)(C)O)C(=O)N[C@@H](C(C)C)C(=O)N(C)[C@@H](CC(C)C)C(=O)N[C@@H](C)C(=O)N[C@H](C)C(=O)N(C)[C@@H](CC(C)C)C(=O)N(C)[C@@H](CC(C)C)C(=O)N(C)[C@@H](C(C)C)C(=O)N1C` stands 30 nM.
On the same count and under the same terms, under `C/C=C/C[C@@H](C)[C@@H](O)[C@H]1C(=O)N[C@@H](CC)C(=O)N(C)[C@H](CSCCN(C)C(C)C)C(=O)N(C)[C@@H](CC(C)(C)O)C(=O)N[C@@H](C(C)C)C(=O)N(C)[C@@H](CC(C)C)C(=O)N[C@@H](C)C(=O)N[C@H](C)C(=O)N(C)[C@@H](CC(C)C)C(=O)N(C)[C@@H](CC(C)C)C(=O)N(C)[C@@H](C(C)C)C(=O)N1C` stands 40 nM; under `C/C=C/C[C@@H](C)[C@@H](O)[C@H]1C(=O)N[C@@H](CC)C(=O)N(C)[C@H](CSCCN2CCCCC2)C(=O)N(C)[C@@H](CC(C)(C)O)C(=O)N[C@@H](C(C)C)C(=O)N(C)[C@@H](CC(C)C)C(=O)N[C@@H](C)C(=O)N[C@H](C)C(=O)N(C)[C@@H](CC(C)C)C(=O)N(C)[C@@H](CC(C)C)C(=O)N(C)[C@@H](C(C)C)C(=O)N1C`, 40 nM.
Same read-out and setting: under `C/C=C/C[C@@H](C)[C@@H](O)[C@H]1C(=O)N[C@@H](CC)C(=O)N(C)[C@H](CSCCCN2CCOCC2)C(=O)N(C)[C@@H](CC(C)(C)O)C(=O)N[C@@H](C(C)C)C(=O)N(C)[C@@H](CC(C)C)C(=O)N[C@@H](C)C(=O)N[C@H](C)C(=O)N(C)[C@@H](CC(C)C)C(=O)N(C)[C@@H](CC(C)C)C(=O)N(C)[C@@H](C(C)C)C(=O)N1C` stands 20 nM.
Turning to `C/C=C/C[C@@H](C)[C@@H](O)[C@H]1C(=O)N[C@@H](CC)C(=O)N(C)[C@H](CSCCCN(CC)CC)C(=O)N(C)[C@@H](CC(C)(C)O)C(=O)N[C@@H](C(C)C)C(=O)N(C)[C@@H](CC(C)C)C(=O)N[C@@H](C)C(=O)N[C@H](C)C(=O)N(C)[C@@H](CC(C)C)C(=O)N(C)[C@@H](CC(C)C)C(=O)N(C)[C@@H](C(C)C)C(=O)N1C`, the EC50 worked out at 30 nM.
Take `C/C=C/C[C@@H](C)[C@@H](O)[C@H]1C(=O)N[C@@H](CC)C(=O)N(C)[C@H](CSCCCN(C)C)C(=O)N(C)[C@@H](CC(C)(C)O)C(=O)N[C@@H](C(C)C)C(=O)N(C)[C@@H](CC(C)C)C(=O)N[C@@H](C)C(=O)N[C@H](C)C(=O)N(C)[C@@H](CC(C)C)C(=O)N(C)[C@@H](CC(C)C)C(=O)N(C)[C@@H](C(C)C)C(=O)N1C`: the concentration for a half-maximal effect (EC50) was found to be 50 nM.

The assay is the same for the next values; noted with them: Hepatitis C virus, Huh-7, Table 16, HCV replicon luciferase; read-out: Antiviral activity EC50.
For the compound `C/C=C/C[C@@H](C)[C@@H](O)[C@H]1C(=O)N[C@@H](CC)C(=O)N(C)[C@H](CSCCNCC(C)(C)C)C(=O)N(C)[C@@H](CC(C)(C)O)C(=O)N[C@@H](C(C)C)C(=O)N(C)[C@@H](CC(C)C)C(=O)N[C@@H](C)C(=O)N[C@H](C)C(=O)N(C)[C@@H](CC(C)C)C(=O)N(C)[C@@H](CC(C)C)C(=O)N(C)[C@@H](C(C)C)C(=O)N1C`, the EC50 came out at 50 nM.

The assay is the same for the next values; noted with them: Table 14, HCV replicon luciferase; read-out: Antiviral activity EC50.
Take `C/C=C/C[C@@H](C)[C@@H](O)[C@H]1C(=O)N[C@@H](CC)C(=O)N(C)[C@@H](COCCN(CC)CC)C(=O)N(C)[C@@H](CC(C)(C)O)C(=O)N[C@@H](C(C)C)C(=O)N(C)[C@@H](CC(C)C)C(=O)N[C@@H](C)C(=O)N[C@H](C)C(=O)N(C)[C@@H](CC(C)C)C(=O)N(C)[C@@H](CC(C)C)C(=O)N(C)[C@@H](C(C)C)C(=O)N1C`: the concentration giving a half-maximal response (EC50) came to 50 nM.

Still in this assay, the particulars now being: Table 16, HCV replicon luciferase; read-out: Antiviral activity EC50.
As to `C/C=C/C[C@@H](C)[C@@H](O)[C@H]1C(=O)N[C@@H](CC)C(=O)N(C)[C@H](CSCCN2CCN(CC)CC2)C(=O)N(C)[C@@H](CC(C)(C)O)C(=O)N[C@@H](C(C)C)C(=O)N(C)[C@@H](CC(C)C)C(=O)N[C@@H](C)C(=O)N[C@H](C)C(=O)N(C)[C@@H](CC(C)C)C(=O)N(C)[C@@H](CC(C)C)C(=O)N(C)[C@@H](C(C)C)C(=O)N1C`, the EC50 stood at 60 nM.
Same read-out and setting: under `CC=CCC(C)C(O)C1C(=O)NC(CC)C(=O)N(C)C(CSCCCN2CCN(CC)CC2)C(=O)N(C)C(CC(C)(C)O)C(=O)NC(C(C)C)C(=O)N(C)C(CC(C)C)C(=O)NC(C)C(=O)NC(C)C(=O)N(C)C(CC(C)C)C(=O)N(C)C(CC(C)C)C(=O)N(C)C(C(C)C)C(=O)N1C` (centres unmarked) stands 50 nM; under `CC=CCC(C)C(O)C1C(=O)NC(CC)C(=O)N(C)C(CSCCCNCC(C)(C)C)C(=O)N(C)C(CC(C)(C)O)C(=O)NC(C(C)C)C(=O)N(C)C(CC(C)C)C(=O)NC(C)C(=O)NC(C)C(=O)N(C)C(CC(C)C)C(=O)N(C)C(CC(C)C)C(=O)N(C)C(C(C)C)C(=O)N1C` (centres unmarked), 50 nM; under `CC=CCC(C)C(O)C1C(=O)NC(CC)C(=O)N(C)C(CSCCCN2CCSCC2)C(=O)N(C)C(CC(C)(C)O)C(=O)NC(C(C)C)C(=O)N(C)C(CC(C)C)C(=O)NC(C)C(=O)NC(C)C(=O)N(C)C(CC(C)C)C(=O)N(C)C(CC(C)C)C(=O)N(C)C(C(C)C)C(=O)N1C` (centres unmarked), 50 nM.
Same read-out and setting: to `C/C=C/C[C@@H](C)[C@@H](O)[C@H]1C(=O)N[C@@H](CC)C(=O)N(C)[C@H](CSCCCN(CC(C)C)CC(C)C)C(=O)N(C)[C@@H](CC(C)(C)O)C(=O)N[C@@H](C(C)C)C(=O)N(C)[C@@H](CC(C)C)C(=O)N[C@@H](C)C(=O)N[C@H](C)C(=O)N(C)[C@@H](CC(C)C)C(=O)N(C)[C@@H](CC(C)C)C(=O)N(C)[C@@H](C(C)C)C(=O)N1C` belongs 40 nM.
